# Test results from patent US20230147389A1, “Transdermal Drug Delivery System for Delivering a Drug to a Patient” (priority 2021, published 2023).
# Where two headings read alike, the source gives them in different places.
# Key:
# [1] = pig
# Text: Further, the rate of permeation may be determined using the Attenuated Total Reflection Fourier Transform Infrared Spectroscopy (ATR-FTIR), and multivariate modeling. […] The flux results may be obtained based on comprehensive in vitro permeation studies by using the pig abdominal skin samples, that may be normalized to reflect the equivalence of 0.10 cm skin thickness.
# A proprietary chemometric modeling method may be used to perform quantitative analysis based on spectral data. In addition, the method may be used to determine the concentration of the active ingredient dissolved in the EthoGel formulation.
# The skin permeation study may be conducted using a Bruker ATR-FTIR instrument (Model Alpha; Bruker Optics Ltd., MA, USA) equipped with a 2×2 mm diamond spectral window. Pig abdominal skin samples may be obtained from a local meat supplier. The skin samples may be treated by removing the fat and connecting tissues from the dermis side, followed by cutting them into 2×2 cm-size pieces and keeping them at freezing temperature for later use. Further, skin thickness may be measured before the experiment by allowing the skin sample to warm to room temperature and by using a Material Thickness Meter (Model No. PCE-CT 26; PCE Americas Inc, Jupiter, Fla., USA).
# In a typical experiment, the skin sample may be put on the spectral window of the spectrometer with the dermis side facing the window. Further, about 1 g of the EthoGel formulation may be applied on the stratum corneum side of the skin sample, which may be covered by an applicator with an area of 3.5 cm^2 to minimize the loss of permeation enhancers (i.e., ethanol) through evaporation from the formulation. IR spectra may be taken at 15-60 min intervals and the experiment may be continued for up to 72 hours when needed. Further, the spectra may be used for calculating w/w % of the active ingredient (ibuprofen or diclofenac), ethanol, and glycerin on the dermis side of the skin. Chemometric modeling may be conducted using the software Unscrambler (CAMO Software AS, Oslo, Norway). The diffusion coefficients of the active ingredient, ethanol, and glycerin can be calculated using the following equation:
# where D is the diffusion coefficient (cm2/H), L is the lag time (hour) and h is the skin thickness (cm).
# The flux J (μg/cm2/H) is calculated using the following equation:
# where D is the diffusion coefficient, C is the concentration (μg/mL) of the active ingredient dissolved in the EthoGel formulation and h is the thickness of the skin.
# [2] = current marketed TD patch products; per 24 hours; cited from earlier work
flux achieved by EGATDDS [1],flux ([1]; 1 w/w %) [μg/cm2/H],flux ([1]; 4 w/w %) [μg/cm2/H],Structure (SMILES),amount of drug delivered in 24 hours [2] [mg]
5-324 μg/cm2/H,54,–,"O=C(O)Cc1ccccc1Nc1c(Cl)cccc1Cl [diclofenac, Diclofenac]",–
25-1337 μg/cm2/H,–,283,"CC(C)Cc1ccc(C(C)C(=O)O)cc1 (stereo not drawn) [ibuprofen, Ibuprofen]",–
–,–,–,CCCN(CCc1cccs1)[C@H]1CCc2c(O)cccc2C1 [ritigotine],1
–,–,–,CCN(C)C(=O)Oc1cccc([C@H](C)N(C)C)c1 [rivastigmine],4.5
